One data set has as its system cells. The experiment in a line: Preliminary cytotoxicity tests. Particulars: preliminary tests by the inventors.
Data set [1] can be described thus: Stability of coloring agents in decellularization (Decell) solution. The data set is classed as physicochemical. Particulars: 0.5 mL of 1% w/v color solution in 50 mL Decell solution. The protocol:
A first set of experiments were conducted to determine the stability of various coloring agents within a decellularization solution (termed herein as “Decell solution”) used in the processing/manufacturing of Kerecis™ fish-skin-derived cellular scaffold products, which is made from the minimally processed skin of wild-caught Atlantic cod, as described in U.S. Pat. No. 8,613,957.
The Decell solution was prepared in accordance with EBL M222. 50 mL of the Decell solution was aliquoted into each of 7 separate plastic tubes securable with a respective lid. A first tube included only the Decell solution, acting as a control. A 0.5 mL aliquot of each of the 6 prepared color solutions was separately added to a corresponding tube containing 50 mL of Decell solution. Any reaction or visible change of the mixture was monitored over time.
The solutions in respective tubes with the respective coloring agents were monitored and documented by photographs at the start of the experiment, after 30 minutes, and after 24 hours of incubation.

SMILES strings stand for the structures.

Data on 2 compounds can be found in patent publication US20220313873A1, “COLORED BIOLOGIC WOUND TREATMENT PROVIDING HEALING PROGRESS MONITORING” (KERECIS HF, priority 2021, published 2022).

As for `CN(C)c1ccc(C(=C2C=CC(=[N+](C)C)C=C2)c2ccc(N(C)C)cc2)cc1` [GV, gentian violet], the cytotoxicity entry in the data set on cells is “did not cause any cytotoxicity concern”.

For the compound `CN(C)c1ccc2nc3ccc(N(C)C)cc3[s+]c2c1.[Cl-]` [Methylene Blue, methylene blue], the “color of the Decell solution” value in data set [1] (after 24 hours) is “had all turned white or nearly white except the Decell solution with the added Methylene Blue”. Moreover, the “fading of color in Decell solution” value in data set [1] (first 20 minutes) was “notable exception”. For the same compound, the cytotoxicity result in the data set with cells was “did not cause any cytotoxicity concern”.
